# Test results from ChEMBL document CHEMBL1122775, “NMR spectroscopic studies of intermediary metabolites of cyclophosphamide. A comprehensive kinetic analysis of the interconversion of cis- and trans-4-hydroxycyclophosphamide with aldophosphamide and the concomitant partitioning of aldophosphamide between irreversible fragmentation and reversible …” (J Med Chem, 1984).
# Assay: pKa was determined
# Format: physicochemical
row,Structure (SMILES),pKa
1,COc1ccc(N)cc1,5.3
2,CC(C)(C)N [TERT-BUTYLAMINE],10.8
